In patent US20080032918A1, “Mast cell-derived renin” (Cornell Research Foundation, Inc., priority 2003, published 2008):
“Also recorded” adds a separate entry of the source.

Tests used:
human lung mast cells = conditions: cited from earlier work
Na+/H+ exchanger [1] = experiment: Na+/H+ exchanger activity in BCECF-loaded SH-SY5Y-AT1A cells; format: cell-based, human
Procedure: Similarly, Na^+/H^+ exchanger activity was measured in response to angiotensin II at the individual cell level in BCECF-loaded SH-SY5Y-AT1A cells. […] Exposing the cells to BAPTA-AM (10 μM) prior to angiotensin II, prevented the angiotensin II-induced increase in Na^+/H^+ exchanger activity.

[2] = tested on: cardiac sympathetic nerve endings; experiment: angiotensin II-evoked norepinephrine release from cardiac sympathetic nerve endings; conditions: for decrease of angiotensin II-induced norepinephrine release / effect on norepinephrine release induced by angiotensin II (FIG. 20): EIPA 30 μM, U-73122 1 μM; for decrease of angiotensin II-induced norepinephrine release: DMI 300 nM; for effect on norepinephrine release induced by angiotensin II (FIG. 20): DMI 300 μM
Procedure: Briefly, male Hartley guinea pigs were anesthetized with CO2 vapor and then exsanguinated. Hearts were perfused through the aorta for 15 min at constant pressure with Ringer's solution at 37° C. […] Hearts were minced in 0.32 M sucrose containing 1 mM EGTA. The minced tissue was then digested with 75 mg collagenase per 10 ml HBS per gm for 1 hr at 37° C. After low speed centrifugation the resulting pellet were suspended in 10 volumes of 0.32 M sucrose and homogenized with a Teflon/glass homogenizer. The homogenate was centrifuged at 650g for 10 min, the pellet was re-homogenized and the homogenate was centrifuged again. The pellet containing cellular debris was discarded, the supernatants from the last two spins were combined, the pooled supernatant was equally subdivided into 4 to 8 tubes and re-centrifuged for 20 min at 20,000g at 4° C. This pellet contains cardiac sympathetic nerve endings. The pellet was resuspended either in HEPES-buffered saline (HBS; 500 μl, normoxic conditions) or in glucose-free HBS, which contained the reducing agent sodium dithionite (500 μl, ischemic conditions), and incubated in the absence or presence of angiotensinogen (1 hr) or other agents for 20 min at 37° C. prior to ischemia (see below). Each suspension was used only once as an independent sample.
Norepinephrine assay: Coronary effluent and synaptosome supernatant will be assayed for NE by HPLC with electrochemical detection (ESA). […] The detection limit is about 0.2 pmol.

Na+/H+ exchanger [3] = experiment: Na+/H+ exchanger activity (acid pulse protocol) in cardiac sympathetic nerve endings; format: cell-based, guinea pig; conditions: angiotensin II 10 nM; for increase in Na+/H+ exchanger activity over control: norepinephrine 1 μM
Procedure: Na^+/H^+ exchanger activity was assayed by measuring the rate of Na^+-dependent intracellular alkalinization in response to an acid load (NH4Cl). An example of the “acid pulse protocol” used to show Na^+/H^+exchanger activity in dye-loaded (BCECF-loaded) sympathetic nerve endings from guinea pig heart is shown in FIG. 18A. This protocol was performed under HEPES-buffered conditions. All of the solutions perfusing the tissue were osmotically balanced using N-methyl-D-glucamine substitution as previously described (Silver et al., Am. J. Physiol. Renal Physiol. 279: F195-F202, 2000; Silver et al., Am. J. Physiol. 275: F94-102, 1998). As shown in the representative tracing in FIG. 18A, guinea-pig heart sympathetic nerve endings, attached to a cover slip and pre-loaded with BCECF to monitor intracellular pH, were initially bathed in a balanced salt solution (Na Ringer's solution).
The slope of this alkalinization of Na^+/H^+ exchanger activity, represented by the dashed line in FIG. 18A, was 0.04 pH units/min. […] Mean Na^+/H^+ exchanger activities measured in cardiac sympathetic nerve endings in this pilot study are compared in FIG. 18C.

[4] = tested on: cardiac sympathetic nerve endings; experiment: norepinephrine release from isolated cardiac sympathetic nerve endings incubated with angiotensinogen; format: cell-based, guinea pig
Excerpt: Preparation ofguinea-pig sympathetic nerve endings: Cardiac sympathetic nerve endings were isolated from guinea-pig hearts as previously described (Seyedi et al., J Pharmacol Exp Ther 290: 656-663, 1999; Seyedi et al., Circ. Res. 81: 774-784, 1997). Spontaneously beating hearts were isolated as previously described by the inventors (Hatta et al., J. Pharmacol. Exp. Ther. 288: 919-927, 1999; Park et al., Circ. Res. 71: 992-1001, 1992). Briefly, male Hartley guinea pigs were anesthetized with CO2 vapor and then exsanguinated. Hearts were perfused through the aorta for 15 min at constant pressure with Ringer's solution at 37° C. (Park et al., Circ. Res. 71: 992-1001, 1992) to exclude blood from the coronary circulation. Hearts were minced in 0.32 M sucrose containing 1 mM EGTA. The minced tissue was then digested with 75 mg collagenase per 10 ml HBS per gm for 1 hr at 37° C. After low speed centrifugation the resulting pellet were suspended in 10 volumes of 0.32 M sucrose and homogenized with a Teflon/glass homogenizer. The homogenate was centrifuged at 650g for 10 min, the pellet was re-homogenized and the homogenate was centrifuged again. The pellet containing cellular debris was discarded, the supernatants from the last two spins were combined, the pooled supernatant was equally subdivided into 4 to 8 tubes and re-centrifuged for 20 min at 20,000g at 4° C. This pellet contains cardiac sympathetic nerve endings. The pellet was resuspended either in HEPES-buffered saline (HBS; 500 μl, normoxic conditions) or in glucose-free HBS, which contained the reducing agent sodium dithionite (500 μl, ischemic conditions), and incubated in the absence or presence of angiotensinogen (1 hr) or other agents for 20 min at 37° C. prior to ischemia (see below). Each suspension was used only once as an independent sample.
Norepinephrine assay: Coronary effluent and synaptosome supernatant will be assayed for NE by HPLC with electrochemical detection (ESA). […]

SH-SY5Y-AT1A cells [5] = experiment: intracellular calcium in Fura-2 loaded SH-SY5Y-AT1A cells; format: cell-based, human
Procedure: The next series of experiments were used to outline the major signaling steps in angiotensin II-evoked release of norepinephrine from sympathetic nerve endings. In particular, experiments were designed to ascertain whether stimulation of PLC might result in an increase in intracellular calcium via IP3 generation. Intracellular calcium (Cai) was measured at the individual cell level using Fura-2 loaded SH-SY5Y-AT1A cells (McDonald et al., Neurosci. Lett. 199: 115-118, 1995; Silver et al., Proc. Natl. Acad. Sci. USA 99: 501-506, 2002).
As discussed above, PLC activation may be an early signaling step in mediating this angiotensin II-induced Ca^2+ transient. The PLC inhibitor U-73122 (1 μM) was used to verify this hypothesis. FIG. 21B is a representative trace from one Fura-2 loaded SH-SY5Y-ATIA cell pre-exposed to U-73122.

SH-SY5Y-AT1A cells [6] = experiment: [3H]MPP+ release from SH-SY5Y-AT1A cells
Excerpt: Efflux was arrested after 10-min exposure to angiotensin II.

guinea-pig hearts = experiment: ischemia-reperfusion in guinea pig hearts ex vivo (Langendorff); conditions: 20-min global ischemia, 45-min reperfusion, lodoxamide 10 μM; for ventricular fibrillation during reperfusion: BILA2157 100 nM
Procedure: Ischemia-reperfusion in guinea pig hearts ex vivo: Guinea-pig hearts will be perfused for 30 min prior to ischemia. Inamura et al., Circ. Res. 78: 475-481 (1996). Normothermic 20-min global ischemia will be induced by complete cessation of coronary perfusion, followed by 45-min reperfusion. Coronary effluent will be assayed for renin activity and NE.
Guinea-pig hearts were perfused ex vivo at constant pressure in a Langendorff apparatus and subjected to 20-min. stop-flow global ischemia, followed by 45-min. reperfusion (Hatta, E., R. Maruyama, S. J. Marshall, M. Imamura, and R. Levi. Bradykinin promotes ischemic norepinephrine release in guinea pig and human hearts. J. Pharmacol. Exp. Ther. 288: 919-927 (1999)). Surface ECG and coronary flow were continuously monitored; the coronary effluent was assayed for renin activity (i.e., ANG I generated as described herein). There was no detectable renin in the coronary effluent prior to ischemia. With reperfusion, there was significant renin overflow into the coronary effluent accompanied by ventricular fibrillation (VF) (FIG. 12).
Traces in the left panels were recorded at the end of the equilibration period prior to ischemia, showing normal sinus rhythm.

[7] = tested on: isolated normoxic guinea pig hearts; experiment: chronotropic response and norepinephrine overflow in normoxic isolated hearts challenged with 48/80; conditions: BILA 2157 100 nM, lodoxamide 30 μM
Excerpt: These findings indicate that cardiac mast cells are capable of releasing active renin, which then leads to local formation of ANG II causing norepinephrine exocytosis.

cardiac mast cells = experiment: renin in coronary effluent of normoxic Langendorff-perfused hearts challenged with 48/80; design: species or system guinea pig; conditions: lodoxamide 10 μM or BILA 2157 100 nM prior to 48/80
Procedure: Renin was measured in the coronary effluent of normoxic Langendorff-perfused guinea-pig hearts, ex vivo. […] When hearts were perfused with the mast-cell stabilizer lodoxamide (FIG. 9B) or the renin inhibitor BILA2157 prior to 48/80 challenge (FIGS. 9A and B), renin overflow was abolished.

## CC(Cc1ccc(O)cc1)NCC(O)c1cc(O)cc(O)c1 (stereo not drawn) [fenoterol]
Human lung mast cells
  inhibition of human lung mast cell release (histamine): most potent global inhibitors

## CC(=O)OCOC(=O)CN(CC(=O)OCOC(C)=O)c1ccccc1OCCOc1ccccc1N(CC(=O)OCOC(C)=O)CC(=O)OCOC(C)=O [BAPTA-AM]
Na+/H+ exchanger [1]; 10 μM prior to angiotensin II 10 nM
  effect on angiotensin II-induced increase in Na+/H+ exchanger activity: prevented

## CCN(c1nc(N)c(C(=O)N=C(N)N)nc1Cl)C(C)C [EIPA, 5-(N-ethyl-N-isopropyl)-amiloride]
[2]
  decrease of angiotensin II-induced norepinephrine release: about 50%
[2]; angiotensin II 100 nM
  effect on norepinephrine release induced by angiotensin II (FIG. 20): blocked

## NC[C@H](O)c1ccc(O)c(O)c1 [norepinephrine]
Na+/H+ exchanger [3]
  increase in Na+/H+ exchanger activity over control: about 3 fold

## O=C(O)c1cc(=O)c2c(OCC(O)COc3cccc4oc(C(=O)O)cc(=O)c34)cccc2o1 [disodium cromoglycate]
Human lung mast cells
  inhibition of human lung mast cell release (histamine): poorly inhibit

## CCCc1c2oc(C(=O)O)cc(=O)c2cc2c(=O)cc(C(=O)O)n(CC)c12 [nedocromil sodium]
Human lung mast cells
  inhibition of human lung mast cell release (histamine): poorly inhibit

## C[C@H](N[C@@H](CCc1ccccc1)C(=O)O)C(=O)N1CCC[C@H]1C(=O)O [enalaprilat]
[4]; nerve endings incubated with BILA2157 10 nM, enalaprilat 30 nM or EXP 3174 10 nM
  effect on 48/80 potentiation of norepinephrine release: abolished

## CNCCCN1c2ccccc2CCc2ccccc21 [DMI, desipramine]
[2]
  decrease of angiotensin II-induced norepinephrine release: about 50%
[2]; angiotensin II 100 nM
  effect on norepinephrine release induced by angiotensin II (FIG. 20): blocked

## COc1ccc2c(c1)CC[C@@H]1[C@@H]2CC[C@]2(C)[C@@H](NCCCCCCN3C(=O)C=CC3=O)CC[C@@H]12 [U-73122]
[2]
  decrease of angiotensin II-induced norepinephrine release: about 60%
[2]; angiotensin II 100 nM
  effect on norepinephrine release induced by angiotensin II (FIG. 20): blocked
SH-SY5Y-AT1A cells [5]; U-73122 1 μM
  effect on angiotensin II-induced intracellular calcium transient: prevented

## CCCCCCCCCCCCCC(=O)O[C@@H]1[C@@H](C)[C@@]2(O)[C@@H](C=C(CO)C[C@]3(O)C(=O)C(C)=C[C@@H]23)[C@@H]2C(C)(C)[C@]12OC(C)=O [PMA, phorbol 12-myristate 13-acetate]
SH-SY5Y-AT1A cells [6]; 8-min incubation with PMA
  increase in the releasing effect of angiotensin II: 3 fold

## N#Cc1cc(NC(=O)C(=O)O)c(Cl)c(NC(=O)C(=O)O)c1 [lodoxamide]
guinea-pig hearts
  ventricular fibrillation during reperfusion: no ventricular fibrillation; also recorded: prevent ventricular fibrillation
guinea-pig hearts; listed as Lodoxamide
  ventricular fibrillation during reperfusion: prevented ventricular fibrillation
guinea-pig hearts; BILA 2157 100 nM
  renin overflow into coronary effluent on reperfusion: no such increase occurs; also recorded: disappeared from the coronary effluent; also recorded: prevented renin release
[4]; lodoxamide 10 μM
  norepinephrine release when hearts perfused with stabilizer prior to 48/80: markedly attenuated
[7]
  chronotropic response to 48/80: markedly abbreviated; also recorded: diminishes the chronotropic response
Cardiac mast cells
  renin overflow into coronary effluent after 48/80 challenge: abolished; also recorded: markedly diminished

## CC(=O)OC[C@H]1O[C@@H]([S-])[C@H](OC(C)=O)[C@@H](OC(C)=O)[C@@H]1OC(C)=O.CCP(CC)CC.[Au+] [auranofin]
Human lung mast cells
  inhibition of human lung mast cell release (histamine): inhibited

## angiotensin II (DRVYIHPF; Angiotensin-2; UniProt P01019 25-32, looked up) [peptide agonist of angiotensin receptors]
[2]; angiotensin II 100 nM
  increase in norepinephrine release above basal level: 27%
SH-SY5Y-AT1A cells [5]; angiotensin II 10 nM, from about 60 nM basal
  intracellular calcium after angiotensin II: 220 nM
Na+/H+ exchanger [3]; control 0.04
  rate of Na+-dependent intracellular alkalinization: 0.19 pH units/min
Na+/H+ exchanger [3]
  increase in Na+/H+ exchanger activity over control: about 6 fold
SH-SY5Y-AT1A cells [6]; 10-min exposure
  increase in MPP+ release above basal levels: 20%
Na+/H+ exchanger [1]; angiotensin II 10 nM
  increase in Na+-dependent intracellular pH recovery rate: 2.5 fold
